Assays:
Format in all cases: cell-based, S. cerevisiae
Conditions in all cases: 1 uM small molecule, difference to activity without small molecule, average of two trials
[1] = biological target: T1, LexA (GSG)2eDHFR / B42 (GSG)rGR2 (UniProt P06536+P0ABQ4, C656G/F620S); experiment: β-galactosidase activity assay, strain V501Y
T1 construct: rat Glucocorticoid Receptor (aa 524-795) with point mutations; expressed in transfected cells; host or cells: S. cerevisiae FY250
T1 sequence (P0ABQ4 1-159): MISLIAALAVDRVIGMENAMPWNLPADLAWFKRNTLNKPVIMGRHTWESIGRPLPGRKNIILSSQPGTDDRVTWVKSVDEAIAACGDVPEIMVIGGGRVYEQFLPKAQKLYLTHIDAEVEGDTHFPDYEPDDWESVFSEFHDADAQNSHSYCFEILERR
T1 sequence (P06536 524-795 F620S/C656G limits assumed): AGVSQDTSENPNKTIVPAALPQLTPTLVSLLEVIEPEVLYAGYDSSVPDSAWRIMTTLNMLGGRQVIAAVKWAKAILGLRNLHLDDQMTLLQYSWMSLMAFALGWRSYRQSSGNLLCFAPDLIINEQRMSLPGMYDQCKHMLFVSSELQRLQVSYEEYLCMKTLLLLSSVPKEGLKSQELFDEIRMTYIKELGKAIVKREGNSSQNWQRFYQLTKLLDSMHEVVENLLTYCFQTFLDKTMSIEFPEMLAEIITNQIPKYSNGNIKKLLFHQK
Text: (§1) Table III explains the components of each strain. Each strain was constructed from the parent yeast strain FY250 and also contains the pMW106 plasmid, which has the LacZ reporter gene that is turned on only in when the LexA DNA binding domain and the B42 activation are brought in tot he vicinity of each other. We use several different strains because we use DHFR from two different species, mDHFR is from murine, while eDHFR is from E. coli. We are asl oable to switch the small moleculebinding domains. For example, the strain containing LexA-eDHFR with B42-rGH2 is a different strain and behaves differently from the strain containing LexA-rGR2 with B42-eDHFR. We also put in short 6 amino acid linkers between the two domains of our protein chimeras and thus these are different strain as well.
(§2) The results in Table IV are averages of two separate trials. Each strain was examined with small molecules and without small molecules. The absolute activity is given as the β-galactisidase activity […]. The average β-galactosidse activity for a strain without small molecule (i.e. the negative control) was about 100 β-galactosidase units.

[2] = biological target: T2, LexA eDHFR / B42 (GSG)rGR2 (UniProt P06536+P0ABQ4, C656G/F620S); experiment: β-galactosidase activity assay, strain V494Y
T2 construct: rat Glucocorticoid Receptor (aa 524-795) with point mutations; expressed in transfected cells; host or cells: S. cerevisiae FY250
T2 sequence (P0ABQ4 1-159): T1 sequence (P0ABQ4 1-159)
T2 sequence (P06536 524-795 F620S/C656G limits assumed): T1 sequence (P06536 524-795 F620S/C656G limits assumed)
Text: as §1, §2

[3] = biological target: T3, LexA (GSG)2rGR2 / B42 mDHFR (UniProt P00375+P06536, C656G/F620S); experiment: β-galactosidase activity assay, strain V508Y
T3 construct: expressed in transfected cells; host or cells: S. cerevisiae FY250 with pMW106 lacZ reporter
T3 sequence (P06536 524-795 F620S/C656G limits assumed): T1 sequence (P06536 524-795 F620S/C656G limits assumed)
T3 sequence (P00375 1-187): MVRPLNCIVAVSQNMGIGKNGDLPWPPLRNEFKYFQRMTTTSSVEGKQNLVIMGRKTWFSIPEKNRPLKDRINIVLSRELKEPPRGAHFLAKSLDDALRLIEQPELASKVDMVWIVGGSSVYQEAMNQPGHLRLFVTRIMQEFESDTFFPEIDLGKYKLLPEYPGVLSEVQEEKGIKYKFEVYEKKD
Text: as §1, §2

[4] = biological target: T4, LexA rGR2 / B42 (GSG)2eDHFR (UniProt P06536+P0ABQ4, C656G/F620S); experiment: β-galactosidase activity assay, strain V509Y
T4 construct: expressed in transfected cells; host or cells: S. cerevisiae FY250 with pMW106 lacZ reporter
T4 sequence (P06536 524-795 F620S/C656G limits assumed): T1 sequence (P06536 524-795 F620S/C656G limits assumed)
T4 sequence (P0ABQ4 1-159): T1 sequence (P0ABQ4 1-159)
Text: as §1, §2

[5] = biological target: T5, LexA (GSG)2mDHFR / B42 gly6rGR2 (UniProt P00375+P06536, C656G/F620S); experiment: β-galactosidase activity assay, strain V503Y
T5 construct: expressed in transfected cells; host or cells: S. cerevisiae FY250 with pMW106 lacZ reporter
T5 sequence (P00375 1-187): T3 sequence (P00375 1-187)
T5 sequence (P06536 524-795 F620S/C656G limits assumed): T1 sequence (P06536 524-795 F620S/C656G limits assumed)
Text: as §1, §2

[6] = biological target: T6, LexA (GSG)2eDHFR / B42 rGR2 (UniProt P06536+P0ABQ4, C656G/F620S); experiment: β-galactosidase activity assay, strain V498Y
T6 construct: rat Glucocorticoid Receptor (aa 524-795) with point mutations; expressed in transfected cells; host or cells: S. cerevisiae FY250
T6 sequence (P0ABQ4 1-159): T1 sequence (P0ABQ4 1-159)
T6 sequence (P06536 524-795 F620S/C656G limits assumed): T1 sequence (P06536 524-795 F620S/C656G limits assumed)
Text: as §1, §2

[7] = biological target: T7, LexA rGR2 / B42 (GSG)2mDHFR (UniProt P00375+P06536, C656G/F620S); experiment: β-galactosidase activity assay, strain V511Y
T7 construct: expressed in transfected cells; host or cells: S. cerevisiae FY250 with pMW106 lacZ reporter
T7 sequence (P06536 524-795 F620S/C656G limits assumed): T1 sequence (P06536 524-795 F620S/C656G limits assumed)
T7 sequence (P00375 1-187): T3 sequence (P00375 1-187)
Text: as §1, §2

[8] = biological target: T8, LexA (GSG)2eDHFR / B42 gly6rGR2 (UniProt P06536+P0ABQ4, C656G/F620S); experiment: β-galactosidase activity assay, strain V499Y
T8 construct: rat Glucocorticoid Receptor (aa 524-795) with point mutations; expressed in transfected cells; host or cells: S. cerevisiae FY250
T8 sequence (P0ABQ4 1-159): T1 sequence (P0ABQ4 1-159)
T8 sequence (P06536 524-795 F620S/C656G limits assumed): T1 sequence (P06536 524-795 F620S/C656G limits assumed)
Text: as §1, §2

[9] = biological target: T9, LexA mDHFR / B42 gly6rGR2 (UniProt P00375+P06536, C656G/F620S); experiment: β-galactosidase activity assay, strain V496Y
T9 construct: rat Glucocorticoid Receptor (aa 524-795) with point mutations; expressed in transfected cells; host or cells: S. cerevisiae FY250
T9 sequence (P00375 1-187): T3 sequence (P00375 1-187)
T9 sequence (P06536 524-795 F620S/C656G limits assumed): T1 sequence (P06536 524-795 F620S/C656G limits assumed)
Text: as §1, §2

LexA rGR2 / B42 mDHFR = biological target: T10, LexA rGR2 / B42 mDHFR (UniProt P00375+P06536, C656G/F620S); experiment: β-galactosidase activity assay, strain V507Y
T10 construct: rat Glucocorticoid Receptor (aa 524-795) with point mutations; expressed in transfected cells; host or cells: S. cerevisiae FY250
T10 sequence (P06536 524-795 F620S/C656G limits assumed): T1 sequence (P06536 524-795 F620S/C656G limits assumed)
T10 sequence (P00375 1-187): T3 sequence (P00375 1-187)
Text: as §1, §2

C[C@@H]1C[C@H]2C3CCC4=CC(=O)C=C[C@]4(C)[C@@]3(F)[C@@H](O)C[C@]2(C)[C@@]1(O)C(=O)NCCSCc1cccc(CSCC[C@H](NC(=O)c2ccc(N(C)Cc3cnc4nc(N)nc(N)c4n3)cc2)C(=O)O)c1 (stereo partly shown) [DM1] was tested, and the B-gal activity [1] was 4662 β-galactosidase units, the B-gal activity [2] was 9976 β-galactosidase units and the B-gal activity [3] was 0 β-galactosidase units. The B-gal activity [4] was 307 β-galactosidase units, the B-gal activity [5] was −5 β-galactosidase units and the B-gal activity [6] was 4735 β-galactosidase units. For the same compound, the B-gal activity [7] was −113 β-galactosidase units, the B-gal activity [8] was 4368 β-galactosidase units and the B-gal activity [9] was −30 β-galactosidase units. For the same compound, the B-gal activity (LexA rGR2 / B42 mDHFR) was −7 β-galactosidase units.

From patent publication US7419780B2, “Methods and assays for screening protein targets” (The Trustees of Columbia University in the City of New York, priority 2000, dated 2008)
